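Compound exposure: 48 hours, 5 concentrations, 96-well plates. Here, GI50 denotes the concentration required for 50% inhibition of growth.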 Active and inactive are the calls of the source. Cut-off read from the data, not from the text of the source: active = GI50 up to about 1.1 µM and inactive = higher.
Experiments:
Assay in all cases: NCI-60 cell line screen, 48 h
[1] = test system: MOLT-4
[2] = test system: OVCAR-8
[3] = test system: NCI-H522
[4] = test system: EKVX
[5] = test system: SR
[6] = test system: SF-268
[7] = test system: M14
[8] = test system: SK-MEL-2
[9] = test system: Hs-578T
[10] = test system: HCT-15
[11] = test system: A498
[12] = test system: RPMI-8226
[13] = test system: MDA-MB-231
[14] = test system: SF-295
[15] = test system: SK-MEL-5
[16] = test system: CCRF-CEM
[17] = test system: HOP-92
[18] = test system: BT-549
[19] = test system: NCI/ADR-RES
[20] = test system: Malme-3M

Structure (SMILES)	GI50 [1]	GI50 [2]	GI50 [3]	GI50 [4]	GI50 [5]	GI50 [6]	GI50 [7]	GI50 [8]	GI50 [9]	GI50 [10] [µM]	GI50 [11]	GI50 [12]	GI50 [13]	GI50 [14]	GI50 [15]	GI50 [16]	GI50 [17]	GI50 [18]	GI50 [19]	GI50 [20]
c1ccc(CNc2c3c(nc4ccccc24)CCC3)cc1	13.1 µM (inactive)	14.1 µM (inactive)	15.7 µM (inactive)	12.1 µM (inactive)	13.4 µM (inactive)	21.7 µM (inactive)	13.7 µM (inactive)	13.8 µM (inactive)	27.2 µM (inactive)	18.9	11.7 µM (inactive)	10 µM (inactive)	12.9 µM (inactive)	6.84 µM (inactive)	11.7 µM (inactive)	3.79 µM (inactive)	10.4 µM (inactive)	17.9 µM (inactive)	14.2 µM (inactive)	17.3 µM (inactive)
Cc1nc(SCC(=O)Nc2ccccc2)c2sc(=S)n(-c3ccccc3)c2n1	> 10 µM (inactive)	9.12 µM (inactive)	> 10 µM (inactive)	> 10 µM (inactive)	> 10 µM (inactive)	> 10 µM (inactive)	> 10 µM (inactive)	> 10 µM (inactive)	4.25 µM (inactive)	> 10	> 10 µM (inactive)	> 10 µM (inactive)	6.18 µM (inactive)	> 10 µM (inactive)	> 10 µM (inactive)	> 10 µM (inactive)	> 10 µM (inactive)	> 10 µM (inactive)	> 10 µM (inactive)	> 10 µM (inactive)
COC(=O)C(Cc1ccccc1)NC(=O)C(CCC(=O)OCc1ccccc1)NC(=O)OC(C)(C)C (stereo not given)	> 100 µM (inactive)	> 100 µM (inactive)	30.4 µM (inactive)	> 100 µM (inactive)	27.2 µM (inactive)	> 100 µM (inactive)	> 100 µM (inactive)	> 100 µM (inactive)	> 100 µM (inactive)	85.5	> 100 µM (inactive)	25 µM (inactive)	48.1 µM (inactive)	> 100 µM (inactive)	> 100 µM (inactive)	64.9 µM (inactive)	> 100 µM (inactive)	> 100 µM (inactive)	> 100 µM (inactive)	> 100 µM (inactive)
CC(C)OC(=O)C(NC(=O)C(CC(=O)OCc1ccccc1)NC(=O)OCc1ccccc1)NC(=O)C1C(C)(C)CCC1(C)C (stereo not given)	8.04 µM (inactive)	2 µM (inactive)	11.6 µM (inactive)	3.85 µM (inactive)	2.64 µM (inactive)	15 µM (inactive)	21.5 µM (inactive)	19.5 µM (inactive)	6.98 µM (inactive)	11	2.5 µM (inactive)	7.5 µM (inactive)	2.1 µM (inactive)	14.1 µM (inactive)	13.7 µM (inactive)	3.18 µM (inactive)	11 µM (inactive)	17.4 µM (inactive)	4.98 µM (inactive)	18 µM (inactive)
Cn1c2ccccc2n2c(N=O)c(-c3ccccc3)nc12	52.7 µM (inactive)	> 100 µM (inactive)	57.5 µM (inactive)	19.4 µM (inactive)	55.1 µM (inactive)	> 100 µM (inactive)	19.6 µM (inactive)	33.1 µM (inactive)	70.3 µM (inactive)	20.1	> 100 µM (inactive)	90.8 µM (inactive)	53.6 µM (inactive)	31.1 µM (inactive)	14.8 µM (inactive)	30.5 µM (inactive)	84.3 µM (inactive)	27.6 µM (inactive)	18.4 µM (inactive)	69.5 µM (inactive)
C[N+](C)(C)CC(=O)N/N=C/c1ccncc1	> 100 µM (inactive)	> 100 µM (inactive)	> 100 µM (inactive)	> 100 µM (inactive)	> 100 µM (inactive)	> 100 µM (inactive)	> 100 µM (inactive)	> 100 µM (inactive)	> 100 µM (inactive)	> 100	> 100 µM (inactive)	> 100 µM (inactive)	> 100 µM (inactive)	> 100 µM (inactive)	> 100 µM (inactive)	> 100 µM (inactive)	> 100 µM (inactive)	> 100 µM (inactive)	> 100 µM (inactive)	> 100 µM (inactive)
O=C1CCCC1CN1CCCC1 (stereo not given)	0.206 µM (active)	17.3 µM (inactive)	< 0.0275 µM (active)	18.1 µM (inactive)	0.194 µM (active)	21.6 µM (inactive)	1.67 µM (inactive)	7.14 µM (inactive)	22.2 µM (inactive)	2	22.5 µM (inactive)	0.431 µM (active)	15.5 µM (inactive)	> 100 µM (inactive)	18 µM (inactive)	0.207 µM (active)	6.56 µM (inactive)	1.56 µM (inactive)	15.7 µM (inactive)	2.04 µM (inactive)
CCOC(=O)C1(CC(=O)O)CCCC1=O (stereo not given)	0.475 µM (active)	> 100 µM (inactive)	> 100 µM (inactive)	> 100 µM (inactive)	> 100 µM (inactive)	> 100 µM (inactive)	> 100 µM (inactive)	> 100 µM (inactive)	> 100 µM (inactive)	> 100	> 100 µM (inactive)	> 100 µM (inactive)	> 100 µM (inactive)	> 100 µM (inactive)	> 100 µM (inactive)	> 100 µM (inactive)	> 100 µM (inactive)	> 100 µM (inactive)	> 100 µM (inactive)	> 100 µM (inactive)
COC12C=CC(CC1)C(C)(C)C2OS(C)(=O)=O (stereo not given)	> 100 µM (inactive)	> 100 µM (inactive)	> 100 µM (inactive)	> 100 µM (inactive)	> 100 µM (inactive)	> 100 µM (inactive)	> 100 µM (inactive)	> 100 µM (inactive)	> 100 µM (inactive)	> 100	97.1 µM (inactive)	> 100 µM (inactive)	> 100 µM (inactive)	> 100 µM (inactive)	> 100 µM (inactive)	> 100 µM (inactive)	> 100 µM (inactive)	> 100 µM (inactive)	> 100 µM (inactive)	> 100 µM (inactive)
O=C(c1ccccc1)c1cc[n+](C2=C([N-]S(=O)(=O)c3ccccc3)C(=O)c3ccccc3C2=O)cc1	3.05 µM (inactive)	13 µM (inactive)	4.74 µM (inactive)	14 µM (inactive)	3.08 µM (inactive)	11.5 µM (inactive)	11.1 µM (inactive)	3 µM (inactive)	3.66 µM (inactive)	14.4	18.1 µM (inactive)	3.3 µM (inactive)	12.9 µM (inactive)	11.8 µM (inactive)	2.01 µM (inactive)	2.1 µM (inactive)	8.61 µM (inactive)	6.76 µM (inactive)	9.38 µM (inactive)	4.34 µM (inactive)
COC(=O)C1=C(C)NC(C)=C(C(=O)OC)C1c1ccc(NO)cc1	2.86 µM (inactive)	10.2 µM (inactive)	0.891 µM (active)	19.5 µM (inactive)	2.47 µM (inactive)	19 µM (inactive)	14.6 µM (inactive)	17.1 µM (inactive)	10.8 µM (inactive)	10.9	29.8 µM (inactive)	1.73 µM (inactive)	12.8 µM (inactive)	17 µM (inactive)	15.4 µM (inactive)	0.897 µM (active)	2.68 µM (inactive)	13.2 µM (inactive)	18.8 µM (inactive)	13 µM (inactive)
CC(C)(CN1CCCCC1)C(=O)/C=C/c1ccc(/C=C/C(=O)C(C)(C)CN2CCCCC2)cc1	0.11 µM (active)	1.02 µM (active)	0.0454 µM (active)	1.71 µM (inactive)	0.103 µM (active)	0.413 µM (active)	0.908 µM (active)	1.25 µM (inactive)	0.42 µM (active)	0.204	1.6 µM (inactive)	0.193 µM (active)	0.196 µM (active)	0.661 µM (active)	1.04 µM (active)	0.0466 µM (active)	0.333 µM (active)	1.7 µM (inactive)	0.393 µM (active)	0.871 µM (active)
CC(OCc1ccccc1)C(NC(=O)C1CSSCC(NC(=O)C(Cc2ccccc2)NC(=O)OCc2ccccc2)C(=O)NC(Cc2ccccc2)C(=O)NC(Cc2cn(C=O)c3ccccc23)C(=O)NC(CCCCNC(=O)OCc2ccccc2)C(=O)NC(C(C)OCc2ccccc2)C(=O)N1)C(N)=O (stereo not given)	2.81 µM (inactive)	75.2 µM (inactive)	17.4 µM (inactive)	> 83.2 µM (inactive)	34 µM (inactive)	> 61.8 µM (inactive)	21.1 µM (inactive)	13.1 µM (inactive)	> 74.8 µM (inactive)	32	27.3 µM (inactive)	5.04 µM (inactive)	12.6 µM (inactive)	> 85.7 µM (inactive)	24.5 µM (inactive)	36.6 µM (inactive)	38.3 µM (inactive)	21.2 µM (inactive)	> 100 µM (inactive)	41.1 µM (inactive)
COc1cc(/C=C/C(=O)O)ccc1OS(=O)(=O)O	> 100 µM (inactive)	> 100 µM (inactive)	> 100 µM (inactive)	> 100 µM (inactive)	> 100 µM (inactive)	> 100 µM (inactive)	> 100 µM (inactive)	> 100 µM (inactive)	> 100 µM (inactive)	> 100	> 100 µM (inactive)	> 100 µM (inactive)	> 100 µM (inactive)	> 100 µM (inactive)	> 100 µM (inactive)	> 100 µM (inactive)	> 100 µM (inactive)	> 100 µM (inactive)	> 100 µM (inactive)	> 100 µM (inactive)
